Test results reported in article PMC11263240 (Pharmaceutical Research, 2024).
Structures can show the parent of a compound that is named as a salt. Where two headings read alike, the source gives them in different places. Values belong to the compound of their own block, whether it stands above or below them.

How the values were obtained:
[1] = design: method as in PMID 15275776; settings: cited from earlier work
[2] = Semi-physiological pharmacokinetic model of ondansetron systemic and CNS disposition (estimated parameters); assay type: in vivo, rat; settings: for k12 Distribution rate constant to peripheral distribution compartment / k13 Distribution rate constant to brain compartment / k14 Distribution rate constant to spinal cord compartment / k15 Distribution rate constant to CSF compartment / k21 Distribution rate constant from peripheral distribution compartment / k31 Distribution rate constant from brain compartment / k35=45 Rate constant for brain/spinal cord and CSF exchange / k41 Distribution rate constant from spinal cord compartment / k51 Distribution rate constant from CSF compartment / k53=54 Rate constant for brain/spinal cord and CSF exchange: model estimate shared across WT, KO, OT; for kPgp,TRQ Rate constant for Pgp-mediated efflux from the CNS for OT animals / kPgp Rate constant for Pgp-mediated efflux from the CNS: model estimate; for kPgp,TRQ Rate constant for Pgp-mediated efflux from the CNS for OT animals: OT group (with tariquidar); for kPgp Rate constant for Pgp-mediated efflux from the CNS: wild type animals, ondansetron alone; for Vd / k el: rat, plasma, brain, spinal cord, CSF, iv, 10 mg/kg
Procedure: Interconnectivity of CNS compartments followed animal physiology (A3 - brain, A4 – spinal cord, A5 - CSF), and previously published CNS model were consulted. The volume of the brain (Vbrain) was fixed to a previously determined value of 1.8 mL which was also in agreement with the brain weight reported before. The volume of the CSF compartment (VCSF) was fixed to 0.25 mL [25]. The volume of the spinal cord (Vspinal) was measured and reported in our previous study and was fixed to 0.6 mL. First order rate constant were used to describe a bidirectional passive permeability between the central disposition compartment (with the volume V1) and various CNS compartments (k13, k31, k14, k41, k15, k51) and distributional terms between CNS compartments (k35, k53, k45, k54). Pgp efflux at the BBB was described using a first-order term (kpgp) and was included for wild type animals only; the term was set to zero in KO rats. The following differential Eqs. (1–5) were used: 1 dA1/dt=k21·A2+k31·A3+k41·A4+k51·A5-kel+k12+k13+k14+k15·A1+kPgp·A3+kPgp·A4 2 dA2/dt=k12·A1-k21·A2 3 dA3/dt=k13·A1+k53·A5-k31+k35+kPgp·A3 4 dA4/dt=k14·A1+k54·A5-k41+k45+kPgp·A4 5 dA5/dt=k15·A1+k35·A3+k45·A4-k51+k53+k54·A5
(§1) The whole dataset included mean ondansetron profiles of OT-M and OT-F in plasma, brain, spinal cord, and CSF obtained in this study and previous data for male and female WT and KO animals. […] Several functions to describe tariquidar-induced Pgp inhibition were considered. […] The final model included a separate term for describing Pgp function in OT groups (kPgp,TRQ). Other parameters were shared across WT, KO, and OT models. All model parameters were estimated. A separate set of parameters was estimated for female cohorts (WT-F, KO-F, OT-F) using the same final model structure.
R (version 3.31) and Rstudio (version 1.2.5001, Boston, MA, USA) with Ubiquity package were used for model development as described before.

[3] = ondansetron alone 10 mg/kg IV, cited from earlier work
[4] = Noncompartmental plasma pharmacokinetics of ondansetron after IV co-administration with tariquidar; assay type: in vivo, rat; settings: ondansetron 10 mg/kg with tariquidar, wild type rats vs wild-type (and Pgp KO) rats
Procedure: The study was conducted under the protocol approved by the Institutional Animal Care and Use Committee at Rutgers University. Wild-type Sprague Dawley rats (males of 10–12 weeks, weighing 300–350 g and females of 12–14 weeks, weighing 250–280 g) were purchased from Horizon Discovery (previously Sage Labs Inc., Boyertown, PA). Animals were housed in a vivarium under controlled temperatures and 12/12 h dark/light cycle with free access to food and water. Right jugular vein was cannulated to allow for accurate intravenous dosing using polyethylene tubing (PE-50, Braintree Scientific, Braintree, MA). The surgery was performed under light isoflurane anesthesia, and after that animals were allowed to recover for 24 h. Intradermal bupivacaine and subcutaneous meloxicam were provided as analgesia. […]
A standard noncompartmental analysis was performed using average plasma concentration–time data (samples obtained from sequential and terminal experiments were combined) in Phoenix WinNonlin version 8.1 (Certara, Princeton, NJ). For plasma, the area under the plasma concentration–time curve from time zero to infinity (AUCplasma), systemic clearance (CL), volume of distribution at steady state (Vd,ss), half-life (t1/2,plasma), and mean residence time (MRT) were calculated. […]

[5] = CNS disposition of ondansetron (brain, spinal cord, CSF) after IV co-administration with tariquidar; assay type: in vivo, rat; settings: ondansetron 10 mg/kg + tariquidar 7.5 mg/kg IV
Procedure: (§2) Animals previously used in the plasma pharmacokinetics study were included following a two-week washout period; and additional animals were added to achieve n = 4–6 per time point. […] Groups of rats were sacrificed at 0.16, 0.25, 0.5, 1, 1.5, 2, and 2.5 h under isoflurane anesthesia, and terminal samples were collected including plasma, brain, spinal cord, and cerebrospinal fluid from cisterna magna (CSF) and stored at −20°C.
Agilent 1260 Infinity HPLC equipped with a photodiode array detector was used (Agilent, Santa Clara, CA, USA) in this work. […] Inter-day and intra-day accuracy and precision of the assay were within 15%.
A standard noncompartmental analysis was performed using average plasma concentration–time data (samples obtained from sequential and terminal experiments were combined) in Phoenix WinNonlin version 8.1 (Certara, Princeton, NJ). For plasma, the area under the plasma concentration–time curve from time zero to infinity (AUCplasma), systemic clearance (CL), volume of distribution at steady state (Vd,ss), half-life (t1/2,plasma), and mean residence time (MRT) were calculated. For brain, spinal cord, and CSF the area under the tissue concentration–time curve (AUCtissue) and half-life in tissue (t1/2,tissue) were reported.
However, since the AUC values were based on terminal samples, no statistical comparison among the groups could be performed.

[6] = Tariquidar concentrations in plasma, brain, spinal cord and CSF after IV administration; assay type: in vivo, rat; settings: 7.5 mg/kg IV; for half-life: Sprague Dawley, rat, plasma
Procedure: as §2
Agilent 1260 Infinity HPLC equipped with a photodiode array detector was used (Agilent, Santa Clara, CA, USA) in this work.
Data analysis was performed separately for male (OT-M) and female (OT-F) rat groups.

[7] = assay type: in vivo
Pgp [8] = assay: Inhibition of Pgp efflux at the CNS by tariquidar in vivo; design: species or system rat; settings: tariquidar 7.5 mg/kg IV, 30 min before ondansetron 10 mg/kg IV, wild type rats
Procedure: as §2, §1

Pgp [9] = settings: cited from earlier work
Pgp [10] = settings: 30 min after intravenous injection of tariquidar doses above 6 mg/kg; cited from earlier work
Pgp [11] = settings: read-out: affinity to Pgp (KD); cited from earlier work

k12 Distribution rate constant to peripheral distribution compartment ([2]; Female): 4.37 h⁻¹
k13 Distribution rate constant to brain compartment ([2]; Female): 13.0 h⁻¹
k14 Distribution rate constant to spinal cord compartment ([2]; Female): 3.60 h⁻¹
k15 Distribution rate constant to CSF compartment ([2]; Female): 0.518 h⁻¹
k21 Distribution rate constant from peripheral distribution compartment ([2]; Female): 2.32 h⁻¹
k31 Distribution rate constant from brain compartment ([2]; Female): 25.2 h⁻¹
k35=45 Rate constant for brain/spinal cord and CSF exchange ([2]; Female): 0.914 h⁻¹
k41 Distribution rate constant from spinal cord compartment ([2]; Female): 31.5 h⁻¹
k51 Distribution rate constant from CSF compartment ([2]; Female): 47.3 h⁻¹
k53=54 Rate constant for brain/spinal cord and CSF exchange ([2]; Female): 79.9 h⁻¹
kPgp,TRQ Rate constant for Pgp-mediated efflux from the CNS for OT animals ([2]; Female): 0.0001 h⁻¹
kPgp Rate constant for Pgp-mediated efflux from the CNS ([2]; Female): 101 h⁻¹
k12 Distribution rate constant to peripheral distribution compartment ([2]; Male): 2.14 h⁻¹
k13 Distribution rate constant to brain compartment ([2]; Male): 17.6 h⁻¹
k14 Distribution rate constant to spinal cord compartment ([2]; Male): 9.37 h⁻¹
k15 Distribution rate constant to CSF compartment ([2]; Male): 0.081 h⁻¹
k21 Distribution rate constant from peripheral distribution compartment ([2]; Male): 2.62 h⁻¹
k31 Distribution rate constant from brain compartment ([2]; Male): 39.6 h⁻¹
k35=45 Rate constant for brain/spinal cord and CSF exchange ([2]; Male): 0.928 h⁻¹
k41 Distribution rate constant from spinal cord compartment ([2]; Male): 71.0 h⁻¹
k51 Distribution rate constant from CSF compartment ([2]; Male): 6.84 h⁻¹
k53=54 Rate constant for brain/spinal cord and CSF exchange ([2]; Male): 66.6 h⁻¹
kPgp,TRQ Rate constant for Pgp-mediated efflux from the CNS for OT animals ([2]; Male): 0.002 h⁻¹
kPgp Rate constant for Pgp-mediated efflux from the CNS ([2]; Male): 81.9 h⁻¹
Vd ([2]; female, Sprague Dawley, with tariquidar (co-administered), read-out: V1,TRQ Central volume of distribution): 0.0113 L
k el ([2]; female, Sprague Dawley, with tariquidar (co-administered), read-out: kel,TRQ Systemic elimination rate constant for OT animals (converted)): 0.000839 s⁻¹
Vd ([2]; female, read-out: V1 Central volume of distribution): 0.0133 L
k el ([2]; female, read-out: kel Systemic elimination rate constant (converted)): 0.00141 s⁻¹
Vd ([2]; male, Sprague Dawley, with tariquidar (co-administered), read-out: V1,TRQ Central volume of distribution): 0.0127 L
k el ([2]; male, Sprague Dawley, with tariquidar (co-administered), read-out: kel,TRQ Systemic elimination rate constant for OT animals (converted)): 0.000939 s⁻¹
Vd ([2]; male, read-out: V1 Central volume of distribution): 0.0175 L
k el ([2]; male, read-out: kel Systemic elimination rate constant (converted)): 0.001 s⁻¹
plasma ondansetron concentration in comparison to ondansetron administered alone [4]: almost doubled
AUCtissue,0-∞ ([5]; Brain, OT-F: female rats): 19.16 h⋅μg⋅mL^−1
AUCtissue,0-∞ ([5]; Brain, OT-M: male rats): 22.0 h⋅μg⋅mL^−1
AUCtissue,0-∞ ([5]; CSF, OT-F: female rats): 1.49 h⋅μg⋅mL^−1
AUCtissue,0-∞ ([5]; CSF, OT-M: male rats): 1.37 h⋅μg⋅mL^−1
AUCtissue,0-∞ ([5]; Spinal Cord, OT-F: female rats): 15.6 h⋅μg⋅mL^−1
AUCtissue,0-∞ ([5]; Spinal Cord, OT-M: male rats): 15.0 h⋅μg⋅mL^−1
SMILES: Cc1nccn1CC1CCc2c(c3ccccc3n2C)C1=O (stereo not shown) [Ondansetron, Ondansetron hydrochloride]
effect of intrathecal administration in a neuropathic animal model [1]: dose-dependent antinociceptive effect
KP_KO ([3]; Brain, female Pgp knockout rats): 3.04
KP_WT ([3]; Brain, female wild type rats): 0.71
KP_KO ([3]; Brain, male Pgp knockout rats): 2.52
KP_WT ([3]; Brain, male wild type rats): 0.46
KP_KO ([3]; CSF, female Pgp knockout rats): 0.22
KP_WT ([3]; CSF, female wild type rats): 0.11
KP_KO ([3]; CSF, male Pgp knockout rats): 0.19
KP_WT ([3]; CSF, male wild type rats): 0.06
KP_KO ([3]; Spinal Cord, female Pgp knockout rats): 1.34
KP_WT ([3]; Spinal Cord, female wild type rats): 0.47
KP_KO ([3]; Spinal Cord, male Pgp knockout rats): 1.78
KP_WT ([3]; Spinal Cord, male wild type rats): 0.39

SMILES: COc1cc2c(cc1OC)CN(CCc1ccc(NC(=O)c3cc(OC)c(OC)cc3NC(=O)c3cnc4ccccc4c3)cc1)CC2 [Tariquidar]
half-life ([6]; female rats): 2.2 h
half-life ([6]; male rats): 3.1 h
Tariquidar detection in CSF samples ([6]; rats, limit of detection 50 ng/mL for CSF): could not be detected
toxicity in rats immediately after ondansetron injection ([7]; tariquidar 15 mg/kg 30 min before ondansetron 10 mg/kg): toxicity
toxicity in rats after ondansetron injection ([7]; tariquidar dose decreased to 7.5 mg/kg, ondansetron 10 mg/kg): eliminating this toxicity
inhibition of Pgp efflux of ondansetron in the brain and spinal cord (Pgp [8]): almost complete inhibition
inhibitory activity (IC50) (Pgp [9]): nM-range
inhibition of Pgp (Pgp [10]): complete inhibition
Kd (Pgp [11]): 5.1 nM
